Experimental data published in paper PMC7220906, “Target-responsive vasoactive probes for ultrasensitive molecular imaging” (Nature Communications, 2020).
Read-outs that look alike come from different tables or passages of the source. One block for each compound: values may come before it. Residues, ends and D or L forms follow the SMILES beside them. *: point of attachment. Biotin = O=C1N[C@H]2[C@H](CS[C@H]2CCCCC(=O)*)N1; X2 = O=C(CCN1C(=O)CC(*)C1=O)NCCc1ccc(O)c(O)c1; X1 = C[C@@H]1NC(=O)N[C@@H]1CCCCCC(=O)*

What was measured:
PACAP receptor PAC1 = molecular target: T1, PACAP receptor PAC1 (Homo sapiens, UniProt P41586); test: PAC1 luminescence (GloSensor cAMP) assay of PACAP derivatives; type: cell-based
T1 construct: expressed in transfected cells; host or cells: CHO K1 cells stably transduced by lentivirus with PAC1 and the Glo22F cAMP luciferase
T1 sequence (P41586 21-468): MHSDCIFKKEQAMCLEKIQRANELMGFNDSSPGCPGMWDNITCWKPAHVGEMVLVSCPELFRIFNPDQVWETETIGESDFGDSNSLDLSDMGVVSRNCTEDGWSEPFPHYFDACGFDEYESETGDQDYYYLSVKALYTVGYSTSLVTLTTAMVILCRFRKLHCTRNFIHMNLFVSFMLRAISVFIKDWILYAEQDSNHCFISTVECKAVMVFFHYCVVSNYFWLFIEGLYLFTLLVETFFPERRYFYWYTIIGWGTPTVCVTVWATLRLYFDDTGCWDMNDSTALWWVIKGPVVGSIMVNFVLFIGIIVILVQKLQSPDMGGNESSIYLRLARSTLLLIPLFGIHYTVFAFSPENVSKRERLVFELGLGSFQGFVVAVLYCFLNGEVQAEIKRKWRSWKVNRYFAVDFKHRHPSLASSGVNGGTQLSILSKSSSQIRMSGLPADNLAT
Procedure: (Promega, Madison, WI). We generated a CHO K1 cell line expressing the required cAMP-dependent luciferase and PAC1 receptor. 24 h before the assay, 2500 cells per well were seeded in 100 µl F10 with 10% FBS in white opaque clear-bottom 96-well plates (Costar, Coppell, TX). […] Luminescence was measured for 30 min using a microtiter plate reader and evaluated after the signal reached a plateau (15 min).
Biotin (BT) and desthiobiotin (dBT) were incorporated as lysine sidechain-derivatized monomers in the synthesis; polyethylene glycol (PEG)-linked BT was incorporated as a BT-functionalized glutamine monomer spaced using a linker of four PEG units. […] Further BT-AVATar activation studies were performed using biotinylated bovine serum albumin (BSA, Sigma-Aldrich) containing 100 nM BT or biotinylated cells containing 150 nM BT (preparation see below) as analytes.
Addition of the maleimido functional group was achieved by reacting DA with N-succinimidyl 3-maleimidopropionate in anhydrous dimethylformamide and further purification using HPLC. The resulting functionalized neurotransmitter, DA-Mal, was further characterized by standard methods (Supplementary Methods and Supplementary Figs. 8 and 9). […] Dopamine sensitivity of the DA-AVATar was examined using freshly prepared DA (Sigma-Aldrich) stocks in PBS pH 7.4.

streptavidin (SA) = test system: streptavidin (SA); parameters: method as in 2 sources, ref 21 = [21]; PMID 9601024; doi:10.1021/bi9803123; 21. Klumb LA Chu V Stayton PS Energetic roles of hydrogen bonds at the ureido oxygen binding pocket in the streptavidin−biotin complex Biochemistry 1998 37 7657 7663 10.1021/bi9803123 9601024 ||| ref 22 = [22]; PMID 7041971; doi:10.1021/bi00534a024; 22. Hofmann K Titus G Montibeller JA Finn FM Avidin binding of carboxyl-substituted biotin and analogues Biochemistry 1982 21 978 984 10.1021/bi00534a024 7041971; details: cited from earlier work
[1] = CHO K1 cells expressing PAC1 and cAMP-dependent luciferase, no streptavidin, mean ± SD of duplicates, read-out: EC50 for PAC1 receptor activation in the absence of SA

Compound: C[C@@H]1NC(=O)N[C@@H]1CCCCCC(=O)O [desthiobiotin]
affinity for SA relative to biotin (lower) (streptavidin (SA)): 10,000 fold

Compound: CC[C@H](C)[C@H](NC(=O)CNC(=O)[C@H](CC(=O)O)NC(=O)[C@H](CO)NC(=O)[C@@H](N)Cc1c[nH]cn1)C(=O)N[C@@H](Cc1ccccc1)C(=O)N[C@H](C(=O)N[C@@H](CC(=O)O)C(=O)N[C@@H](CO)C(=O)N[C@@H](CSC1CC(=O)N(CCC(=O)NCCc2ccc(O)c(O)c2)C1=O)C(=O)N[C@@H](CO)C(=O)N[C@@H](CCCNC(=N)N)C(=O)N[C@@H](Cc1ccc(O)cc1)C(=O)N[C@@H](CCCNC(=N)N)C(=O)N[C@@H](CCCCN)C(=O)N[C@@H](CCC(N)=O)C(=O)N[C@@H](CCSC)C(=O)N[C@@H](C)C(=O)N[C@H](C(=O)N[C@@H](CSC1CC(=O)N(CCC(=O)NCCc2ccc(O)c(O)c2)C1=O)C(=O)N[C@@H](CCCCN)C(=O)N[C@@H](Cc1ccc(O)cc1)C(=O)N[C@@H](CC(C)C)C(=O)N[C@@H](C)C(=O)N[C@@H](C)C(=O)N[C@H](C(=O)N[C@@H](CC(C)C)C(=O)NCC(=O)N[C@@H](CCCCN)C(=O)N[C@@H](CCCNC(=N)N)C(=O)N[C@@H](Cc1ccc(O)cc1)C(=O)N[C@@H](CCCCN)C(=O)N[C@@H](CCC(N)=O)C(=O)N[C@@H](CCCNC(=N)N)C(=O)N[C@H](C(=O)N[C@@H](CCCCN)C(=O)N[C@@H](CC(N)=O)C(=O)N[C@@H](CCCCN)C(N)=O)C(C)C)C(C)C)C(C)C)[C@@H](C)O (some centres unmarked) [PACAP-10,20-DA] (H-HSDGIFTDSC(X2)SRYRKQMAVC(X2)KYLAAVLGKRYKQRVKNK-NH2)
EC50 (PACAP receptor PAC1; DA conjugate, no IgG, SD of duplicates, read-out: EC50 for PAC1 receptor activation): 2500 ± 600 pM

Compound: O=C(O)CCCC[C@@H]1SC[C@@H]2NC(=O)N[C@@H]21 [biotin]
characteristic dissociation time of SA from biotin (streptavidin (SA)): ~ 7 h

Further lines, results first:

EC50 (PACAP receptor PAC1; [1]): 130 ± 2 pM
Compound: CC[C@H](C)[C@H](NC(=O)CNC(=O)[C@H](CC(=O)O)NC(=O)[C@H](CO)NC(=O)[C@@H](N)Cc1c[nH]cn1)C(=O)N[C@@H](Cc1ccccc1)C(=O)N[C@H](C(=O)N[C@@H](CC(=O)O)C(=O)N[C@@H](CO)C(=O)N[C@@H](CCCCNC(=O)CCCCC[C@H]1NC(=O)N[C@H]1C)C(=O)N[C@@H](CO)C(=O)N[C@@H](CCCNC(=N)N)C(=O)N[C@@H](Cc1ccc(O)cc1)C(=O)N[C@@H](CCCNC(=N)N)C(=O)N[C@@H](CCCCN)C(=O)N[C@@H](CCC(N)=O)C(=O)N[C@@H](CCSC)C(=O)N[C@@H](C)C(=O)N[C@H](C(=O)N[C@@H](CCCCNC(=O)CCCCC[C@H]1NC(=O)N[C@H]1C)C(=O)N[C@@H](CCCCN)C(=O)N[C@@H](Cc1ccc(O)cc1)C(=O)N[C@@H](CC(C)C)C(=O)N[C@@H](C)C(=O)N[C@@H](C)C(=O)N[C@H](C(=O)N[C@@H](CC(C)C)C(=O)NCC(=O)N[C@@H](CCCCN)C(=O)N[C@@H](CCCNC(=N)N)C(=O)N[C@@H](Cc1ccc(O)cc1)C(=O)N[C@@H](CCCCNC(=O)CCCCC[C@H]1NC(=O)N[C@H]1C)C(=O)N[C@@H](CCC(N)=O)C(=O)N[C@@H](CCCNC(=N)N)C(=O)N[C@H](C(=O)N[C@@H](CCCCN)C(=O)N[C@@H](CC(N)=O)C(=O)N[C@@H](CCCCN)C(N)=O)C(C)C)C(C)C)C(C)C)[C@@H](C)O [PACAP-10,20,32-dBT] (H-HSDGIFTDSK(X1)SRYRKQMAVK(X1)KYLAAVLGKRYK(X1)QRVKNK-NH2)

EC50 (PACAP receptor PAC1; [1]): 61 ± 7 pM
Compound: CC[C@H](C)[C@H](NC(=O)CNC(=O)[C@H](CC(=O)O)NC(=O)[C@H](CO)NC(=O)[C@@H](N)Cc1c[nH]cn1)C(=O)N[C@@H](Cc1ccccc1)C(=O)N[C@H](C(=O)N[C@@H](CC(=O)O)C(=O)N[C@@H](CO)C(=O)N[C@@H](CCCCNC(=O)CCCC[C@@H]1SC[C@@H]2NC(=O)N[C@@H]21)C(=O)N[C@@H](CO)C(=O)N[C@@H](CCCNC(=N)N)C(=O)N[C@@H](Cc1ccc(O)cc1)C(=O)N[C@@H](CCCNC(=N)N)C(=O)N[C@@H](CCCCN)C(=O)N[C@@H](CCC(N)=O)C(=O)N[C@@H](CCSC)C(=O)N[C@@H](C)C(=O)N[C@H](C(=O)N[C@@H](CCCCNC(=O)CCCC[C@@H]1SC[C@@H]2NC(=O)N[C@@H]21)C(=O)N[C@@H](CCCCN)C(=O)N[C@@H](Cc1ccc(O)cc1)C(=O)N[C@@H](CC(C)C)C(=O)N[C@@H](C)C(=O)N[C@@H](C)C(=O)N[C@H](C(=O)N[C@@H](CC(C)C)C(=O)NCC(=O)N[C@@H](CCCCN)C(=O)N[C@@H](CCCNC(=N)N)C(=O)N[C@@H](Cc1ccc(O)cc1)C(=O)N[C@@H](CCCCN)C(=O)N[C@@H](CCC(N)=O)C(=O)N[C@@H](CCCNC(=N)N)C(=O)N[C@H](C(=O)N[C@@H](CCCCN)C(=O)N[C@@H](CC(N)=O)C(=O)N[C@@H](CCCCN)C(N)=O)C(C)C)C(C)C)C(C)C)[C@@H](C)O [PACAP-10,20-BT] (H-HSDGIFTDSK(Biotin)SRYRKQMAVK(Biotin)KYLAAVLGKRYKQRVKNK-NH2)
